In the supplement of paper PMC10307832:

Key:
Experiment in all cases: relative viability (nuclei count vs DMSO), 5 days (fraction); higher = more cells survive
[1] = compound: CS(=O)(=O)c1ccc(C(=O)Nc2ccc(Cl)c(-c3ccccn3)c2)c(Cl)c1 [Vismodegib] + Nc1ncn([C@H]2C[C@H](O)[C@@H](CO)O2)c(=O)n1 [Decitabine] (partner 2 µM)
Summary of the method: (§1)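 The day after seeding in 1536-well plates, lung cancer cell lines were treated by pin tool with a single drug, or with a fixed anchor-drug dose together with five library-drug doses (not always all listed) in √10 steps. After 5 days, a combined fix-and-stain solution (final 0.05% Triton X-100, 1% formaldehyde, 1 ug/ml Hoechst) was added. Nuclei counted on 4× images gave relative viability as treated counts over vehicle counts, reported as the median of duplicate plates.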

[2] = compound: CS(=O)(=O)c1ccc(-c2cnc(N)c(C(=O)Nc3ccccc3)n2)cc1 [VE-821] + CC(C)C[C@H](NC(=O)[C@H](Cc1ccccc1)NC(=O)c1cnccn1)B(O)O [Bortezomib] (partner 0.002 µM)
Summary of the method: as §1

[3] = compound: CS(=O)(=O)c1ccc(C(=O)Nc2ccc(Cl)c(-c3ccccn3)c2)c(Cl)c1 [Vismodegib] + N=C(N)NC(=N)NCCc1ccccc1 [Phenformin] (partner 250 µM)
Summary of the method: as §1

[4] = compound: CS(=O)(=O)c1ccc(-c2cnc(N)c(C(=O)Nc3ccccc3)n2)cc1 [VE-821] + Cc1cc(Nc2cc(N3CCN(C)CC3)nc(Sc3ccc(NC(=O)C4CC4)cc3)n2)n[nH]1 [Tozasertib] (partner 0.1 µM)
Summary of the method: as §1

| Cell Line | relative viability ([1]; first compound 0.08 µM) | relative viability ([1]; first compound 0.253 µM) | relative viability ([1]; first compound 0.8 µM) | relative viability ([1]; first compound 2.53 µM) | relative viability ([1]; first compound 8 µM) | relative viability ([2]; first compound 0.08 µM) | relative viability ([2]; first compound 0.253 µM) | relative viability ([2]; first compound 0.8 µM) | relative viability ([2]; first compound 2.53 µM) | relative viability ([2]; first compound 8 µM) | relative viability ([3]; first compound 0.08 µM) | relative viability ([3]; first compound 0.253 µM) | relative viability ([3]; first compound 0.8 µM) | relative viability ([3]; first compound 2.53 µM) | relative viability ([3]; first compound 8 µM) | relative viability ([4]; first compound 0.08 µM) | relative viability ([4]; first compound 0.253 µM) | relative viability ([4]; first compound 0.8 µM) | relative viability ([4]; first compound 2.53 µM) | relative viability ([4]; first compound 8 µM) |
| --- | --- | --- | --- | --- | --- | --- | --- | --- | --- | --- | --- | --- | --- | --- | --- | --- | --- | --- | --- | --- |
| NCI-H1650 | 0.411 | 0.388 | 0.426 | 0.447 | 0.512 | 0.194 | 0.195 | 0.339 | 0.187 | 0.213 | 0.387 | 0.414 | 0.479 | 0.415 | 0.406 | 0.457 | 0.416 | 0.278 | 0.299 | 0.208 |
| NCI-H1651 | 0.581 | 0.617 | 0.682 | 0.528 | 0.579 | 0.978 | 0.964 | 1.07 | 1.04 | 0.921 | 0.353 | 0.336 | 0.365 | 0.343 | 0.327 | 0.779 | 0.616 | 0.345 | 0.517 | 0.422 |
| NCI-H1666 | 0.763 | 0.774 | 0.739 | 0.676 | 0.69 | 0.942 | 0.864 | 0.755 | 0.736 | 0.549 | 0.557 | 0.587 | 0.535 | 0.517 | 0.565 | 0.625 | 0.684 | 0.646 | 0.644 | 0.603 |
| NCI-H1734 | 0.466 | 0.437 | 0.47 | 0.505 | 0.499 | 1.3 | 0.873 | 0.878 | 0.879 | 0.611 | 0.384 | 0.316 | 0.396 | 0.322 | 0.384 | 0.292 | 0.245 | 0.235 | 0.24 | 0.226 |
| NCI-H1755 | 0.686 | 0.727 | 0.693 | 0.677 | 0.723 | 1.01 | 0.95 | 0.941 | 0.898 | 0.79 | 0.596 | 0.61 | 0.611 | 0.617 | 0.598 | 0.667 | 0.543 | 0.539 | 0.532 | 0.428 |
| NCI-H1915 | 0.265 | 0.264 | 0.236 | 0.245 | 0.258 | 0.967 | 0.958 | 1.03 | 0.999 | 0.962 | 0.368 | 0.359 | 0.381 | 0.355 | 0.357 | 0.472 | 0.45 | 0.341 | 0.35 | 0.303 |
| NCI-H1975 | 0.386 | 0.444 | 0.396 | 0.414 | 0.404 | 0.482 | 0.333 | 0.381 | 0.393 | 0.347 | 0.402 | 0.408 | 0.398 | 0.424 | 0.389 | 0.862 | 0.625 |  | 0.17 | 0.139 |
| NCI-H1993 | 0.524 | 0.68 | 0.588 | 0.587 | 0.543 | 1.25 | 0.869 | 0.967 | 1.16 | 0.812 | 0.448 | 0.531 | 0.519 | 0.514 | 0.498 | 0.685 | 0.556 | 0.567 | 0.513 | 0.549 |
| NCI-H2009 | 0.363 | 0.377 | 0.366 | 0.416 | 0.344 | 0.952 | 0.967 | 0.993 | 1.07 | 0.814 | 0.467 | 0.474 | 0.478 | 0.45 | 0.467 | 0.871 | 0.74 | 0.633 | 0.737 | 0.734 |
| NCI-H2023 | 0.224 | 0.197 | 0.285 | 0.246 | 0.236 | 1.08 | 0.902 | 0.763 | 0.549 | 0.218 | 0.367 | 0.364 | 0.43 | 0.384 | 0.401 | 0.401 | 0.297 | 0.129 | 0.107 | 0.0977 |
| NCI-H2085 | 0.548 | 0.461 | 0.544 | 0.56 | 0.561 | 1.04 | 0.929 | 0.892 | 1.12 | 0.98 | 0.698 | 0.749 | 0.714 | 0.718 | 0.697 | 0.875 | 0.759 | 0.494 | 0.459 | 0.368 |
| NCI-H2087 | 0.267 | 0.25 | 0.266 | 0.296 | 0.233 | 0.996 | 1.07 | 1.16 | 0.77 | 0.937 | 0.45 | 0.445 | 0.427 | 0.45 | 0.399 | 0.241 | 0.204 | 0.248 | 0.212 | 0.198 |
| NCI-H2126 | 0.598 | 0.544 | 0.592 | 0.549 | 0.611 | 1.22 | 1.04 | 1.11 | 1.04 | 1.09 | 0.529 | 0.517 | 0.482 | 0.493 | 0.506 | 0.911 | 0.911 | 0.671 | 0.703 | 0.518 |
| NCI-H2347 | 0.645 | 0.603 | 0.593 | 0.646 | 0.612 | 1.07 | 0.881 | 0.729 | 0.876 | 0.878 | 0.336 | 0.477 | 0.448 | 0.361 | 0.464 | 0.506 | 0.6 | 0.272 | 0.498 | 0.506 |
| NCI-H2405 | 0.739 | 0.801 | 0.693 | 0.712 | 0.741 | 1.1 | 1 | 0.974 | 1.02 | 0.947 | 0.336 | 0.386 | 0.381 | 0.381 | 0.39 | 0.824 | 0.714 | 0.713 | 0.726 | 0.742 |
| NCI-H3122 | 0.469 | 0.499 | 0.512 | 0.423 | 0.323 | 1 | 1.02 | 1.01 | 1.02 | 1 | 0.377 | 0.356 | 0.362 | 0.365 | 0.36 | 0.389 | 0.383 | 0.369 | 0.418 | 0.306 |
